Measured values taken from patent US6168939A, “Endopeptidase produced by Lactobacillus helveticus” (priority 1995, dated 2001).
“Also recorded” adds a separate entry of the source. Like-named read-outs stand apart in the source and are kept apart here. Numbered stars: 1 amine (or outer) side, 2 acyl side, 3 side chain; on linkers, the order of the positions; unused ones are H or OH. Ends that are not written are not given here. Peptide text beside a SMILES is read from it. * marks the point of attachment. pNA = O=[N+]([O-])c1ccc(N*)cc1; Suc = O=C(CCC(=O)[*:2])[*:1]; MeOSuc = COC(=O)CCC(=O)*

T1: endopeptidase produced by Lactobacillus helveticus (Lactobacillus helveticus, UniProt Q6UP05)
T1 construct: N-terminus […]
T1 sequence (Q6UP05 1-643): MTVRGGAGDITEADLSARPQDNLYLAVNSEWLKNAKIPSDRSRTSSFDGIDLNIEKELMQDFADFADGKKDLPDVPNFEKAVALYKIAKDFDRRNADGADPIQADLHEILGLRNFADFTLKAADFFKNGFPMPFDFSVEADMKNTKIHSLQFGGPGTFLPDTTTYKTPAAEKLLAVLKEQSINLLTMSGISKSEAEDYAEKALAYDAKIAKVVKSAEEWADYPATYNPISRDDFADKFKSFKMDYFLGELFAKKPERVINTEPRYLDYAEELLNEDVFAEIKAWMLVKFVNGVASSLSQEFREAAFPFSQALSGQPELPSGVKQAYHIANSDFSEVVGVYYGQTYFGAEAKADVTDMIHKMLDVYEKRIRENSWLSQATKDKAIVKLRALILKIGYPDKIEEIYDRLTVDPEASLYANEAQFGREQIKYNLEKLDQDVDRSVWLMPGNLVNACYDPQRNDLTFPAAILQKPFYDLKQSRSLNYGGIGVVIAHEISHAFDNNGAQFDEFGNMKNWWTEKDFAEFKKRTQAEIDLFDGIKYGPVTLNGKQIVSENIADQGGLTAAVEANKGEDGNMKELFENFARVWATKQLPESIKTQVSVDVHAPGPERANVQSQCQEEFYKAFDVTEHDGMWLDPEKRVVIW

B1: α51 -Casein: casein protein substrate (probably αs1-casein) (protein, UniProt P02662 16-214, looked up)
Alpha-S1-casein: RPKHPIKHQGLPQEVLNENLLRFFVAPFPEVFGKEKVNELSKDIGSESTEDQAMEDIKQMEAESISSSEEIVPNSVEQKHIQKEDVPSERYLGYLEQLLRLKKYKVPQLEIVPNSAEERLHSMKEGIHAQQKEPMIGVNQELAYFYPELFRQFYQLDAYPSGAWYYVPLGTQYTDAPSFSDIPNPIGSENSEKTTMPLW
B2: β-Casein: casein protein substrate (protein, UniProt P02666 16-224, looked up)
Beta-casein: RELEELNVPGEIVESLSSSEESITRINKKIEKFQSEEQQQTEDELQDKIHPFAQTQSLVYPFPGPIPNSLPQNIPPLTQTPVVVPPFLQPEVMGVSKVKEAMAPKHKEMPFPKYPVEPFTESQSLTLTDVENLHLPLPLLQSWMHQPHQPLPPTVMFPPQSVLSLSQSKVLPVPQKAVPYPQRDMPIQAFLLYQEPVLGPVRGPFPIIV

Key:
Assay type in all cases: biochemical
[1] = molecular target: T1, endopeptidase produced by Lactobacillus helveticus; assay: Substrate specificity: hydrolysis of substrates by the endopeptidase; parameters: key: + represents that a substrate was hydrolyzed; - represents that a substrate was not hydrolyzed; settings: 5.0 hrs
Experimental: The substrate specificity of the endopeptidase of the present invention was determined. In 200 μl of 2 to 5 mM substrate in 50 mM HEPES buffer, pH 7.0, 10 μl of the endopeptidase solution of the present invention in 50 mM HEPES buffer, pH 7.0, at five μg/ml was added and incubated at 30° C. for 5.0 hrs. Then, the reaction mixture was applied to reversed phase chromatography and eluted using linear increase of concentration of acetonitrile in 0.1% trifluoroacetic acid from zero to 60%. The hydrolysis was determined from the decrease of the peak area of the substrate and/or the appearance of a new peak(s) at 214 nm on the chromatogram.

[2] = molecular target: T1, endopeptidase produced by Lactobacillus helveticus
Experimental: (§1) The influences of enzyme inhibitors on the-activity of the endopeptidase of the present invention was determined. The purified endopeptidase (0.5 μg protein/ml) in 40 mM HEPES, pH7.0, was incubated for 30 min. at 4° C. with 0.001 to 2.0 mM enzyme inhibitors. After pre-incubating the enzyme mixture for 5 min. at 30° C., 1 mM Tyr-Gly-Gly-Phe-Met (SEQ ID NO: 2) was added to start the reaction and the mixture was incubated for 20 min. at 30° C. The reaction was stopped by 10% acetic acid.
The enzyme activity was determined by reversed phase chromatography.

[3] = molecular target: T1, endopeptidase produced by Lactobacillus helveticus; assay: Influence of metal ions on endopeptidase activity; settings: method according to Test example 7
Experimental: as §1
The influences of metal ions to the activity of the endopeptidase of the present invention was determined similarly by the method according to Test example 7. The enzyme activity was inhibited by Cu^2+, Zn^2+ and Fe^2+.

[4] = 2 to 5 mM substrate, 50 mM HEPES pH 7.0, 30° C.
[5] = 0.001 to 2.0 mM inhibitor, 30 min. at 4° C., 1 mM Tyr-Gly-Gly-Phe-Met, pH 7.0, 30° C.

| Molecule | Hydrolysis [1, 4] | other results |
| --- | --- | --- |
| COC(=O)CCC(=O)N[C@@H](CCCNC(=N)N)C(=O)N1CCC[C@H]1C(=O)N[C@@H](Cc1ccc(O)cc1)C(=O)Nc1ccc([N+](=O)[O-])cc1 [MeO-Suc-Arg-Pro-Tyr-pNA] (MeOSuc-Arg-Pro-Tyr-pNA) | - | Hydrolysis ([1]; substrate + LAP (leucine aminopeptidase), pH 7.0, 30° C.): + |
| NCCCC[C@H](N)C(=O)Nc1ccc([N+](=O)[O-])cc1 [Lys-pNA] | - |  |
| RPPGFSPFR [Bradykinin] | + |  |
| Gly-Pro-Gly-Gly (GPGG) | - |  |
| β-Casein, f203-209: β-Casein fragment 203-209, 7 amino acid residues (GPFPIIV; UniProt P02666 218-224, looked up, fragment) | + |  |
| Bzl-Cys-pNA | - |  |
| Phe-Met | - |  |
| Pro-Gly-Gly | - |  |
| CSCC[C@H](NC(=O)[C@H](CC(C)C)NC(=O)CNC(=O)[C@H](Cc1ccccc1)NC(=O)[C@H](Cc1ccccc1)NC(=O)[C@H](CCC(N)=O)NC(=O)[C@H](CCC(N)=O)NC(=O)[C@@H]1CCCN1C(=O)[C@H](CCCCN)NC(=O)[C@@H]1CCCN1C(=O)[C@@H](N)CCCNC(=N)N)C(N)=O [Substance P] | + |  |
| Pro-Gly-Lys-Ala-Arg (PGKAR) | - |  |
| Parathyroid hormone, human, f1-44: human parathyroid hormone fragment 1-44, 44 amino acid residues (SVSEIQLMHNLGKHLNSMERVEWLRKKLQDVHNFVALGAPLAPR; Parathyroid hormone; UniProt P01270 32-75, looked up, fragment) | - |  |
| Z-Phe-Ala | - |  |
| O=S(=O)(F)Cc1ccccc1 [phenylmethylsulfonyl fluoride] |  | inhibition of endopeptidase activity by enzyme inhibitors [2, 5]: no inhibition |
| Leu-Gly-Gly | - |  |
| CSCC[C@H](NC(=O)[C@H](Cc1ccccc1)NC(=O)CNC(=O)CNC(=O)[C@@H](N)Cc1ccc(O)cc1)C(=O)O [Met-Enkephalin] | + |  |
| Leu-Leu | - |  |
| CC(C)C[C@H](NC(=O)[C@@H]1CCCN1C(=O)[C@H](C)NC(=O)[C@H](C)NC(=O)CCC(=O)O)C(=O)Nc1ccc([N+](=O)[O-])cc1 [Suc-Ala-Ala-Pro-Leu-pNA] (Suc-AAPL-pNA) | - |  |
| Ala-Ala-Ala-Ala (AAAA) | + |  |
| [Zn+2] [Zn^2+] |  | inhibition of endopeptidase activity by metal ions [3]: inhibited |
| Parathyroid hormone, human, f1-38: human parathyroid hormone fragment 1-38, 38 amino acid residues (SVSEIQLMHNLGKHLNSMERVEWLRKKLQDVHNFVALG; Parathyroid hormone; UniProt P01270 32-69, looked up, fragment) | - |  |
| O=C(O)CN(CCN(CC(=O)O)CC(=O)O)CC(=O)O [EDTA, ethylenediaminetetraacetic acid] |  | inhibition of endopeptidase activity by enzyme inhibitors ([2]; pH 7): inhibited; also recorded: inhibition |
| Leu-Leu-Leu | + |  |
| c1cnc2c(c1)ccc1cccnc12 [1,10-phenanthroline] |  | inhibition of endopeptidase activity by enzyme inhibitors [2, 5]: inhibited; also recorded: inhibition |
| Pro-Ala | - |  |
| O=S(=O)(O)c1cc[c]([Hg][Cl])cc1 [p-CMBS, p-chloromercuribenzenesulfonic acid] |  | inhibition of endopeptidase activity by enzyme inhibitors [2, 5]: inhibited; also recorded: inhibition |

| Molecule | Hydrolysis [1, 4] | other results |
| --- | --- | --- |
| κ-Casein: casein protein substrate | - |  |
| Neurotensin | + |  |
| Ala-Pro-pNA | - |  |
| Phe-Val | - |  |
| Dynorphin A | + |  |
| Pro-Lys-Gly-Gly (PKGG) | - |  |
| β-Casomorphin | - |  |
| Met-Gly-Gly | - |  |
| Ala-Ala-Ala-Ala-Ala | + |  |
| Gly-Pro-Arg-Pro (GPRP) | - |  |
| β-Casein, f108-113: β-Casein fragment 108-113, 6 amino acid residues (EMPFPK; UniProt P02666 123-128, looked up, fragment) | + |  |
| Angiotensin (DRVYIHPFHL; Angiotensin-1; UniProt P01019 25-34, looked up) | + |  |
| Parathyroid hormone, human, f1-34: human parathyroid hormone fragment 1-34, 34 amino acid residues | + |  |
| O=C(Nc1ccc([N+](=O)[O-])cc1)[C@@H]1CCCN1 [Pro-pNA] | - |  |
| Tyr-Gly-Gly | - |  |
| [Fe+2] [Fe^2+] |  | inhibition of endopeptidase activity by metal ions [3]: inhibited |
| [Cu+2] [Cu^2+] |  | inhibition of endopeptidase activity by metal ions [3]: inhibited |
| Parathyroid hormone, human, f13-34: human parathyroid hormone fragment 13-34, 22 amino acid residues (KHLNSMERVEWLRKKLQDVHNF; Parathyroid hormone; UniProt P01270 44-65, looked up, fragment) | + |  |
| O=C(O)CCC(=O)N[C@@H](Cc1ccccc1)C(=O)Nc1ccc([N+](=O)[O-])cc1 [Suc-Phe-pNA] | - |  |
| O=C(O)CI [iodoacetic acid] |  | inhibition of endopeptidase activity by enzyme inhibitors ([2]; pH 7): no inhibition |
| Insulin β-chain | + |  |
| Ala-Ala-Ala-Ala-Ala-Ala | + |  |
| B1 | - |  |
| B2 | - |  |
